Source: patent US20100216718A1, “Cancer Classification and Methods of Use” (priority 2007, published 2010)
Each block holds one compound with its values, some of them ahead of it.

Experiments:
Akt (Ser473) = assay: Western blot of Akt phosphorylation in H1703 cells; format: cell-based, human; settings: for phosphorylation of Akt at Ser473: treated for 1 hr, western blot (FIG. 5B)
Protocol: (§1) We dissolved drugs (Iressa and Gleevec) in DMSO to yield 10 mM stock solution and stored at −20° C.

PDGFRα = biological target: T1, PDGFRα (Homo sapiens, UniProt P16234); assay: Western blot of PDGFRα phosphorylation in H1703 cells; format: cell-based
T1 construct: PDGFRα expression is highly restricted to H1703 cell line; endogenous in cells; host or cells: H1703 human NSCLC cell line (ATCC)
Protocol: as §1

p44/42MAPK = assay: Western blot of p44/42MAPK phosphorylation in H1703 cells; format: cell-based, human; settings: 100 nM Imatinib, 1 hour (FIG. 9B)
Protocol: as §1

H1703 cells = assay: Cell growth inhibition assay (MTT/MTS), H1703; format: cell-based, human; settings: 72 hr (FIG. 5C)
Protocol: Briefly, we seeded 1000 to 5000 cells onto flat-bottomed 96-well plates and grew them in complete medium with 10% FBS. After 24 hours, we changed the cell medium to 100 μl complete growth medium with 10% FBS containing various concentrations of Gleevec, and incubated the cells for an additional 72 hours. We applied each drug concentration to triplicate well of cells. At the end of the incubation, we added 20 μl of CellTiter 96 AQUESOUS One solution to each well, and incubated the plate for 1-4 hours. We read absorbance at 490 nm using a Titan Multiskan Ascent microplate reader (Titertek Instrument). We expressed growth inhibition as mean±SD value of percentage of absorbance reading from treated cells vs untreated cells. We repeated the assay at least three times. We calculated IC50 with the use of OriginPro 6.1 software (OriginLab, Northampton, Mass.).

H1703 xenograft = assay: H1703 mouse xenograft; format: in vivo, NCR nude mice
Protocol: We purchased four to six weeks female NCR nude mice from Taconic ande used them to generate H1703 xenograft. We carried out experiments under an IACUC approved protocol. We followed institutional guidelines for the proper and humane use of animals in research. We generated tumors by injecting 10 mice with 5×10^6H1703 cells and reconstituted basement membrane Matrigel (BD Biosciences) with 1:1 ratio in PBS. Drug treatment started when the tumor was about 1 mm×1 mm size. 5 mice were treated with Gleevec at 50 mg/kg/day by oral gavage using a ball ended feeding needle. 5 mice were untreated. […] We measured the average tumor diameter using caliper in both control and treated groups of mice.

[1] = test system: phosphotyrosine signaling in H1703 cells; assay: SILAC LC-MS/MS phosphotyrosine analysis of H1703 cells; format: cell-based, human; settings: 1 μM Gleevec for 3 hours
From the text: We performed phosphopeptide immunoprecipitation from different cell lines as described previously (Rush, J., Moritz, A., Lee, K. A., Guo, A., Goss, V. L., Spek, E. J., Zhang, H., Zha, X. M., Polakiewicz, R. D., and Comb, M. J. (2005). Immunoaffinity profiling of tyrosine phosphorylation in cancer cells. Nat. Biotechnol. 23, 94-101) using the PhosphoScan Kit (P-Tyr-100) from CST.
We split equal number of H1703 cells and grew them in either light or heavy SILAC medium (RPMI medium lacking arginine and lysine supplemented with either regular L-Lysine:HCl and L-Arginine:HCL (Sigma) for light medium, or supplemented with L-arginine:HCl (U-13 C6,98%) and L-lysine:2HCl (U-13C6,98%; U-15N2,98%) (Cambridge Isotope Laboratories) for heavy medium. The medium also contained 10% FBS, and penicillin/streptomycin. We grew cells for at least five generations to reach 100 million cells in each medium type. We then treated cells grown in the heavy medium with 1 μM Gleevec for 3 hours. We lysed both treated and control cells in Urea lysis buffer and combined them for phosphopeptide immunoprecipitation experiment as described above.
We LC-MS analyzed each phosphopeptide sample in duplicate. We packed a fused silica microcapillary column (125 μm×18 cm) with C18 reverse-phase resin (Magic C18AQ, 5 μm particles, 200 Å pore size, Michrom Bioresources, Auburn, Calif.). We loaded samples (4 μL) onto this column with an autosampler (LC Packings Famos, San Francisco, Calif.) and eluted them into the mass spectrometer by a 55-min linear gradient of 7 to 30% acetonitrile in 0.1% formic acid. We delivered the gradient at approximately 600 nl/min using a binary HPLC pump (Agilent 1100, Palo Alto, Calif.) with an in-line flow splitter. We mass analyzed eluting peptide ions with a hybrid linear ion trap-7 Tesla ion cyclotron resonance Fourier transform instrument (LTQ-FT, Thermo Electron, San Jose, Calif.). We employed a top-seven method, whereby we collected 7 data-dependent MS/MS scans in the linear ion trap based on measurements made during the previous MS survey scan in the ICR cell, with the linear ion trap and the Fourier transform instrument operating concurrently. We performed MS scans at 375-1800 m/z with an automatic gain control (AGC) target of 3×10^6 and a mass resolution of 10^5. For MS/MS the AGC was 4000, the dynamic exclusion time was 25 s, and singly-charged ions were rejected by charge-state screening.
We assigned peptide sequences to MS/MS spectra using Sequest software (v.27, rev.12) and a composite forward/reverse IPI human protein database. Search parameters were: trypsin as protease; 1.08 Da precursor mass tolerance; static modification on cysteine (+57.02146, carboxamidomethylation); and dynamic modifications on serine, threonine and tyrosine (+79.96633 Da, phosphorylation), lysine (+8.01420, ^13C6 ^15N2), arginine (+6.02013, ^13C6) and methionine (+15.99491, oxidation). We used a target/decoy database approach to establish appropriate score-filtering criteria such that the estimated false-positive assignment rate was <1%. In addition to exceeding charge-dependent XCorr thresholds (for z=2, XCorr≧2.2; for z=3, XCorr≧3.3; for z=4, XCorr≧3.5), we required assignments to contain phosphotyrosine, to have a mass accuracy of −5 to +25 ppm, and to contain either all-light or all-heavy lysine/arginine residues. We further evaluated assignments passing these criteria using a custom quantification program Vista (Bakalarski, C. E., Elias, J. E., Villen, J. Haas, W., Gerber, S. A., Everley, P. A., and Gygi, S. P. (2008) The Impact of Peptide Abundance and Dynamic Range on Stable-Isotope-Based Quantitative Proteomic Analyses. J. Proteome Res. 10.1021/pr800333e) to calculate peak areas and ultimately a relative abundance between heavy and light forms of each peptide.

PLCγ1 = assay: Western analysis with site and phosphorylation-specific antibodies, PLCγ1; format: cell-based, human; settings: H1703 cells, 1 μM for 3 hours, western (FIG. 9E)
Protocol: as §1

SHP2 = assay: Western analysis with site and phosphorylation-specific antibodies, SHP2; format: cell-based, human; settings: H1703 cells, 1 μM for 3 hours, western (FIG. 9E)
Protocol: as §1

Stat3 = assay: Western analysis with site and phosphorylation-specific antibodies, Stat3; format: cell-based, human; settings: H1703 cells, 1 μM for 3 hours, western (FIG. 9E)
Protocol: as §1

A549 cells = settings: previous report (Zhang et al. 2003); cited from earlier work
[2] = 100 nM Imatinib, 1 hour (FIG. 9B)
[3] = indicated amounts of Imatinib mesylate, 1 hour (FIG. 9B)

T1 sequence (P16234 24-1089): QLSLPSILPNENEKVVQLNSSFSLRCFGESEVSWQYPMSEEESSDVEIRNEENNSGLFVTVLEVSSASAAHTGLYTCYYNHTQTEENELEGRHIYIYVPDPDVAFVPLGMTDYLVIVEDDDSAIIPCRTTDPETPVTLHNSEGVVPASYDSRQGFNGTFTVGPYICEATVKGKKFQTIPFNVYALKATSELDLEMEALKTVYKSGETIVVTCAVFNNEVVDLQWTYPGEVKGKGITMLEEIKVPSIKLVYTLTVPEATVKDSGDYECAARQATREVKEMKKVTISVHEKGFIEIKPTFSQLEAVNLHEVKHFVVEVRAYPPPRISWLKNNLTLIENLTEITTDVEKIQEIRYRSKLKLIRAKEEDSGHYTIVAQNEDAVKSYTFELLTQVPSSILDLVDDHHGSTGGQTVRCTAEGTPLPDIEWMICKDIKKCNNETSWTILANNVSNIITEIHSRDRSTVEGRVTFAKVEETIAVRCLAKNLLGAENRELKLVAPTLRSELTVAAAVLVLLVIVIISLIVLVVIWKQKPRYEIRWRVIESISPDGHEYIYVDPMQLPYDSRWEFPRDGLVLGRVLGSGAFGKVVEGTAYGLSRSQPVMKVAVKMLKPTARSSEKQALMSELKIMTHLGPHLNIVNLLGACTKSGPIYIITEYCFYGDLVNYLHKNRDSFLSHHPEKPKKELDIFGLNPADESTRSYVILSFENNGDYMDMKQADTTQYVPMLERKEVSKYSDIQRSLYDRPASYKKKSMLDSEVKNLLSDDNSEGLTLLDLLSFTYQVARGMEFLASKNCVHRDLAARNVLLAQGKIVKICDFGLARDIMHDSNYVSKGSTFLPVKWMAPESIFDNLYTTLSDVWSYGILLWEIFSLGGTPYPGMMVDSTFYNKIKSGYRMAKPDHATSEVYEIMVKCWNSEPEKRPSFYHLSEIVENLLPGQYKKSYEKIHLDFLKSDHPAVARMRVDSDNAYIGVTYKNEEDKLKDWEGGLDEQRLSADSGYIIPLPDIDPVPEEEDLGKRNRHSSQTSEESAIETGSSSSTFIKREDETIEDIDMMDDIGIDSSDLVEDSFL

SMILES: COc1cc2ncnc(Nc3ccc(F)c(Cl)c3)c2cc1OCCCN1CCOCC1 [Gefitinib]
phosphorylation of Akt at Ser473 (Akt (Ser473)): not by Gefitinib

PDGFRα phosphorylation (PDGFRα; [2]): almost complete inhibition
phosphorylation of PDGFRα (PDGFRα; 1 μM for 3 hours, western (FIG. 9E)): decreased phosphorylation
PDGFR α phosphorylation (Tyr754) (PDGFRα; [3]): dose-dependent inhibition
SMILES: Cc1ccc(NC(=O)c2ccc(CN3CCN(C)CC3)cc2)cc1Nc1nccc(-c2cccnc2)n1 [Imatinib]
Akt phosphorylation (Akt (Ser473); [2]): almost complete inhibition
Akt phosphorylation (Ser473) (Akt (Ser473); [3]): dose-dependent inhibition
phosphorylation of Akt at Ser473 (Akt (Ser473)): blocked
p44/42MAPK phosphorylation (p44/42MAPK): little if any effect
cell growth / sensitivity to Imatinib (H1703 cells): sensitivity profile similar to K562 cells
cell growth / sensitivity to Imatinib (H1703 cells; listed as Imatinib mesylate): inhibits cell growth
tumor growth (H1703 xenograft; H1703 xenograft in nude mice, 50 mg/kg daily, 2 week period, vs vehicle): immediate and profound effects on tumor growth
tumor growth (H1703 xenograft; H1703 xenograft, after 7 days of Imatinib treatment at 50 mg/kg (FIG. 9F)): blocks tumor growth
phosphorylation of SMS2 [1]: inhibited phosphorylation
phosphorylation of the ras effector Rinl [1]: inhibited phosphorylation
tyrosine phosphorylation of SHP-2 [1]: suppressed tyrosine phosphorylation
tyrosine phosphorylation of Stat5 [1]: suppressed tyrosine phosphorylation
tyrosine phosphorylation of phospholipase Cg 1 [1]: suppressed tyrosine phosphorylation
tyrosine phosphorylation of proteins regulating the cytoskeleton and actin reorganization and signaling molecules involved in membrane recycling and endocytosis [1]: suppressed
tyrosine phosphorylation of the regulatory subunit of PI3K [1]: suppressed tyrosine phosphorylation
phosphorylation of PLCγ1 (PLCγ1): decreased phosphorylation
phosphorylation of SHP2 (SHP2): decreased phosphorylation
phosphorylation of Stat3 (Stat3): not changed
sensitivity to Imatinib (A549 cells): showed sensitivity
